In ChEMBL document CHEMBL1201862, “PubChem BioAssay data set” (2004):
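Protocol summary: plate cells (96-well), add compound at 5 concentrations, incubate 48 h, interpolate endpoints linearly. GI50 is the concentration that inhibits growth by half.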 Activity calls are given as the source filed them. No stated cut-off is given here; in the data, active = GI50 up to about 1.1 µM and inactive = higher.

What was measured:
Experiment in all cases: inhibition of tumour cell growth, NCI panel, 48 h
SNB-75 = test system: SNB-75
HT-29 = test system: HT-29
MDA-MB-231 = test system: MDA-MB-231
SF-295 = test system: SF-295
OVCAR-8 = test system: OVCAR-8
A549 = test system: A549
HOP-62 = test system: HOP-62
U-251 = test system: U-251
HCT-15 = test system: HCT-15
Hs-578T = test system: Hs-578T
MDA-MB-435 = test system: MDA-MB-435
SNB-19 = test system: SNB-19
CAKI-1 = test system: CAKI-1
K562 = test system: K562
SK-MEL-2 = test system: SK-MEL-2
KM12 = test system: KM12
COLO 205 = test system: COLO 205
SK-MEL-5 = test system: SK-MEL-5
ACHN = test system: ACHN

Row | Compound | GI50 (SNB-75) | GI50 (HT-29) | GI50 (MDA-MB-231) | GI50 (SF-295) | GI50 (OVCAR-8) | GI50 (A549) | GI50 (HOP-62) | GI50 (U-251) | GI50 (HCT-15) | GI50 (Hs-578T) | GI50 (MDA-MB-435) | GI50 (SNB-19) | GI50 (CAKI-1) | GI50 (K562) | GI50 (SK-MEL-2) | GI50 (KM12) | GI50 (COLO 205) | GI50 (SK-MEL-5) | GI50 (ACHN)
1 | CC12CCC(C1)C(C)(C)C2OC(=O)c1ccccc1C(=O)O (stereo not drawn) | > 100 µM (inactive) | > 100 µM (inactive) | > 100 µM (inactive) | > 100 µM (inactive) | > 100 µM (inactive) | > 100 µM (inactive) | 34.7 µM (inactive) | > 100 µM (inactive) | > 100 µM | 8.97 µM (inactive) | > 100 µM (inactive) | > 100 µM (inactive) | > 100 µM (inactive) | > 100 µM (inactive) | > 100 µM (inactive) | > 100 µM (inactive) | > 100 µM (inactive) | > 100 µM (inactive) | > 100 µM (inactive)
2 | O=C1C(c2c(O)[nH]c3ccc(Br)cc23)=Nc2ccc(Br)cc21 | 19.7 µM (inactive) | 48.4 µM (inactive) | 20 µM (inactive) | > 100 µM (inactive) | 27.1 µM (inactive) | 32.7 µM (inactive) | 42.1 µM (inactive) | 18.7 µM (inactive) | 43 µM | 51.4 µM (inactive) | 40.7 µM (inactive) | 30.1 µM (inactive) | > 100 µM (inactive) | 43.9 µM (inactive) | > 100 µM (inactive) | 44.2 µM (inactive) | > 100 µM (inactive) | > 100 µM (inactive) | > 100 µM (inactive)
3 | Cn1c(CC(O)c2nc3ccccc3n2C)nc2ccccc21 (stereo not drawn) | > 100 µM (inactive) | > 32.8 µM (inactive) | > 34.8 µM (inactive) | > 100 µM (inactive) | > 27 µM (inactive) | > 56.6 µM (inactive) | > 12.3 µM (inactive) | > 28 µM (inactive) | > 16 µM | > 14.5 µM (inactive) | > 18.5 µM (inactive) | > 36.6 µM (inactive) | > 100 µM (inactive) | > 9.51 µM (inactive) | > 31.3 µM (inactive) | > 100 µM (inactive) | > 28.4 µM (inactive) | > 32.8 µM (inactive) | > 23.6 µM (inactive)
4 | CCCCC1C=Cn2c(=O)oc3c(OC(C)C)c(C)c(O)c1c32 (stereo not drawn) | 0.466 µM (active) | 2.7 µM (inactive) | 1.87 µM (inactive) | 0.982 µM (active) | 1.73 µM (inactive) | 1.84 µM (inactive) | 0.0497 µM (active) | 1.14 µM (inactive) | 0.357 µM | 0.684 µM (active) | 1.33 µM (inactive) | 0.323 µM (active) | 0.409 µM (active) | 0.91 µM (active) | 1.66 µM (inactive) | 1.49 µM (inactive) | 3.01 µM (inactive) | 2 µM (inactive) | 0.413 µM (active)
5 | Nc1nc(Cl)nc(NCc2ccccc2)n1 | > 100 µM (inactive) | > 100 µM (inactive) | > 100 µM (inactive) | > 100 µM (inactive) | > 100 µM (inactive) | > 100 µM (inactive) | > 100 µM (inactive) | > 100 µM (inactive) | > 100 µM | > 100 µM (inactive) | > 100 µM (inactive) | > 100 µM (inactive) | > 100 µM (inactive) | > 100 µM (inactive) | > 100 µM (inactive) | > 100 µM (inactive) | > 100 µM (inactive) | > 100 µM (inactive) | > 100 µM (inactive)
6 | COc1cc(/C=C2\N=C(c3ccccc3)N(c3nc4ccc(Sc5ccccc5)cc4[nH]3)C2=O)cc(OC)c1OC | 17.4 µM (inactive) | 21.4 µM (inactive) | 20.6 µM (inactive) | 23.6 µM (inactive) | 32.7 µM (inactive) | 34.3 µM (inactive) | 31.5 µM (inactive) | 18.3 µM (inactive) | 21.1 µM | 30.8 µM (inactive) | 5.19 µM (inactive) | 33.6 µM (inactive) | 31.1 µM (inactive) | 13.2 µM (inactive) | 15.4 µM (inactive) | 17.6 µM (inactive) | 18.9 µM (inactive) | 13.2 µM (inactive) | 22.9 µM (inactive)
7 | C[n+]1c2ccccc2c2/c(=C\C#N)c3ccccc3n21 | 3.23 µM (inactive) | 3.82 µM (inactive) | 4.43 µM (inactive) | 5.82 µM (inactive) | 3.52 µM (inactive) | 6.92 µM (inactive) | 2.84 µM (inactive) | 2.73 µM (inactive) | 28.4 µM | 4.21 µM (inactive) | 5.43 µM (inactive) | 5.24 µM (inactive) | 23.8 µM (inactive) | 5.42 µM (inactive) | 3.49 µM (inactive) | 3.61 µM (inactive) | 1.56 µM (inactive) | 6.53 µM (inactive) | 4.91 µM (inactive)
